According to patent publication US20250326732A1 (Pretzel Therapeutics, Inc., priority 2021, published 2025):

Target: POLRMT (Homo sapiens (Human), UniProt O00411)
Test: homogeneous TR-FRET assay of mitochondrial transcription (inhibition of POLRMT)
Assay type: biochemical
Conditions: 7.5 nM POLRMT, 15 nM TFB2M, 30 nM TFAM, 0.5 nM DNA template, 500 μM NTPs, 37° C. for 60 minutes
Method in brief: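 POLRMT transcription from linearized pUC-LSP DNA template; RNA product detected by hybridization of ATTO647 acceptor (1 nM) and biotinylated donor (3 nM) probes plus Europium-streptavidin. Reaction stopped with EDTA/700 mM NaCl buffer, pH 7.5.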

Sequence of POLRMT (O00411 42-1230): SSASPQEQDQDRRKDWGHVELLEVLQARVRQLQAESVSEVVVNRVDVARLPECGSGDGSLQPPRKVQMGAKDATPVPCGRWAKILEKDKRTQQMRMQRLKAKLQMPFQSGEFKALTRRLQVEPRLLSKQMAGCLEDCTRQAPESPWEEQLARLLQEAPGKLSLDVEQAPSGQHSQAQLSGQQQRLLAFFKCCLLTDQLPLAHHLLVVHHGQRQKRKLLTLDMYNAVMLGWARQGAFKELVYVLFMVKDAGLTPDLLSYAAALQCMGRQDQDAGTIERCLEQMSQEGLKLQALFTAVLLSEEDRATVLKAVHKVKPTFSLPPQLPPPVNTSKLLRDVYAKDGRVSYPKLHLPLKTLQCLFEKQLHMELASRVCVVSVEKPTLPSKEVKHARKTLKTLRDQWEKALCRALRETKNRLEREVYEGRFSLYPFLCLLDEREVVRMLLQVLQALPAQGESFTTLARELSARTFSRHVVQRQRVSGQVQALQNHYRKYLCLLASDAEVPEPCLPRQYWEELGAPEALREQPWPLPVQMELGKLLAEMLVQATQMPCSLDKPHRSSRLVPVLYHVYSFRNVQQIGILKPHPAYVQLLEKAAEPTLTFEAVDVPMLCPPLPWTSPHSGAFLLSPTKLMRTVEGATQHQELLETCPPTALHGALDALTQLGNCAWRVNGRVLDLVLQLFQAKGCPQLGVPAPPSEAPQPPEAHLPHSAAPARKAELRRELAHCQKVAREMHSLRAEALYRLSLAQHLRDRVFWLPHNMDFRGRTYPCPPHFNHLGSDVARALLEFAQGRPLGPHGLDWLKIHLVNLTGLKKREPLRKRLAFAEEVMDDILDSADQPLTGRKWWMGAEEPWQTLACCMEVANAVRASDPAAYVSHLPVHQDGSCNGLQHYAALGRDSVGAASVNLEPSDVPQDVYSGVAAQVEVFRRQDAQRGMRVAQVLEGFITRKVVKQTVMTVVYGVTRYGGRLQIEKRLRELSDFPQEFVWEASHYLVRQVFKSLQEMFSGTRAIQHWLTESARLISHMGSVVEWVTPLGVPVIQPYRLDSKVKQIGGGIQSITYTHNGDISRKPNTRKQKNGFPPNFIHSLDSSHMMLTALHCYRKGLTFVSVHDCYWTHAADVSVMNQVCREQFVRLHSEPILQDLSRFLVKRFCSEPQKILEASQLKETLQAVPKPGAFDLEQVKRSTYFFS

Row | Structure (SMILES) | IC50
1 | C[C@@H](Nc1ccc2c(-c3ccc(F)cc3Cl)cc(=O)oc2c1)C(=O)N1CCOCC1 [Example 47, (R)-4-(2-chloro-4-fluorophenyl)-7-((1-morpholino-1-oxopropan-2-yl)amino)-2H-chromen-2-one] | 0.4 µM
2 | CCNC(=O)[C@@H](C)Nc1ccc2c(-c3ccc(F)cc3Cl)cc(=O)oc2c1 [Example 48, (R)-2-((4-(2-chloro-4-fluorophenyl)-2-oxo-2H-chromen-7-yl)amino)-N-ethylpropanamide] | 3 µM
3 | Cc1ccccc1-c1cc(=O)oc2cc(CCC(=O)N3CCCCC3)ccc12 [Example 49, 7-(3-oxo-3-(piperidin-1-yl)propyl)-4-(o-tolyl)-2H-chromen-2-one] | 1 µM
4 | CCOC(=O)/C(C)=C/c1ccc2c(-c3ccccc3C)cc(=O)oc2c1 [Example 50, ethyl (E)-2-methyl-3-(2-oxo-4-(o-tolyl)-2H-chromen-7-yl)acrylate] | 2 µM
5 | CCOC(=O)C(C)Cc1ccc2c(-c3ccccc3C)cc(=O)oc2c1 (stereo not shown) [Example 51, ethyl 2-methyl-3-[4-(o-tolyl)-2-oxo-chromen-7-yl]propanoate] | 0.3 µM
6 | Cc1ccccc1-c1cc(=O)oc2cc(CC(C)C(=O)O)ccc12 (stereo not shown) [Example 52, 2-methyl-3-[4-(o-tolyl)-2-oxo-chromen-7-yl]propanoic acid] | 0.2 µM
7 | CCOC(=O)/C=C/c1ccc2c(-c3ccccc3C)cc(=O)oc2c1 [Example 53, ethyl (E)-3-(2-oxo-4-(o-tolyl)-2H-chromen-7-yl)acrylate] | 2 µM
8 | CCOC(=O)CCc1ccc2c(-c3ccccc3C)cc(=O)oc2c1 [Example 54, ethyl 3-(2-oxo-4-(o-tolyl)-2H-chromen-7-yl)propanoate] | 0.9 µM
9 | C[C@H](C(=O)N1CCOCC1)N(C)c1ccc2c(-c3ccc(F)cc3Cl)cc(=O)oc2c1 [Example 55, (R)-4-(2-chloro-4-fluorophenyl)-7-(methyl(1-morpholino-1-oxopropan-2-yl)amino)-2H-chromen-2-one] | 0.07 µM
10 | CCNC(=O)[C@@H](C)N(C)c1ccc2c(-c3ccc(F)cc3Cl)cc(=O)oc2c1 [Example 56, (R)-2-((4-(2-chloro-4-fluorophenyl)-2-oxo-2H-chromen-7-yl)(methyl)amino)-N-ethylpropanamide] | 0.2 µM
11 | COC(=O)/C=C(\C)c1ccc2c(-c3ccccc3C)cc(=O)oc2c1 [Example 57, methyl (E)-3-(2-oxo-4-(o-tolyl)-2H-chromen-7-yl)but-2-enoate] | 0.3 µM
12 | COC(=O)CC(C)c1ccc2c(-c3ccccc3C)cc(=O)oc2c1 (stereo not shown) [Example 58, methyl 3-(2-oxo-4-(o-tolyl)-2H-chromen-7-yl)butanoate] | 3 µM
13 | Cc1ccccc1-c1cc(=O)oc2cc(C(C)CC(=O)N3CCCCC3)ccc12 (stereo not shown) [Example 59, 7-(4-oxo-4-(piperidin-1-yl)butan-2-yl)-4-(o-tolyl)-2H-chromen-2-one] | 2 µM
14 | Cc1ccccc1-c1cc(=O)oc2cc(N[C@@H](CC(C)C)C(=O)OC(C)(C)C)ccc12 [Example 60, tert-butyl (2-oxo-4-(o-tolyl)-2H-chromen-7-yl)-L-leucinate] | 8 µM
15 | Cc1ccccc1-c1cc(=O)oc2cc(NCC(=O)OC(C)(C)C)ccc12 [Example 61, tert-butyl (2-oxo-4-(o-tolyl)-2H-chromen-7-yl)glycinate] | 0.9 µM
16 | Cc1ccccc1-c1cc(=O)oc2cc(N(C)CC(=O)OC(C)(C)C)ccc12 [Example 70, tert-butyl N-methyl-N-(2-oxo-4-(o-tolyl)-2H-chromen-7-yl)glycinate] | 0.04 µM
17 | Cc1ccccc1-c1cc(=O)oc2cc(NCC(=O)O)ccc12 [Example 71, (2-oxo-4-(o-tolyl)-2H-chromen-7-yl)glycine] | 6 µM
18 | Cc1ccccc1-c1cc(=O)oc2cc(NCC(=O)N3CCCCC3)ccc12 [Example 72, 7-((2-oxo-2-(piperidin-1-yl)ethyl)amino)-4-(o-tolyl)-2H-chromen-2-one] | 3 µM
19 | Cc1ccccc1-c1cc(=O)oc2cc(N[C@@H](CC(C)C)C(=O)O)ccc12 [Example 73, (2-oxo-4-(o-tolyl)-2H-chromen-7-yl)-L-leucine] | 3 µM
